Assay: xn = mol fraction of the nth substance listed
Conditions: Liquid; for viscosity: 100.5 kPa; for mass density: 101 kPa

CCCC(=O)OCCC(C)C [3-methylbutyl butanoate] + CCO
Conditions	mass density, 288.15 K [kg/m3]	mass density, 298.15 K [kg/m3]	mass density, 308.15 K [kg/m3]	mass density, 318.15 K [kg/m3]	viscosity, 288.15 K [mPa·s]	viscosity, 298.15 K [mPa·s]	viscosity, 308.15 K [mPa·s]	viscosity, 318.15 K [mPa·s]
x1 = 0.05	804.06	795.35	786.52	777.54	1.27	1.057	0.887	0.744
x1 = 0.1	812.38	803.57	794.63	785.54	1.231	1.025	0.858	0.723
x1 = 0.15	819.51	810.61	801.58	792.4	1.201	1.004	0.844	0.715
x1 = 0.2	825.58	816.61	807.52	798.28	1.181	0.993	0.838	0.711
x1 = 0.25	830.83	821.8	812.66	803.38	1.171	0.985	0.834	0.71
x1 = 0.3	835.41	826.34	817.17	807.86	1.167	0.98	0.832	0.71
x1 = 0.35	839.37	830.31	821.11	811.78	1.168	0.98	0.833	0.714
x1 = 0.4	842.96	833.85	824.64	815.3	1.17	0.984	0.835	0.717
x1 = 0.45	846.14	837.02	827.79	818.44	1.176	0.989	0.84	0.723
x1 = 0.5	849.03	839.9	830.66	821.32	1.183	0.994	0.846	0.729
x1 = 0.55	851.61	842.46	833.24	823.9	1.191	1.001	0.853	0.735
x1 = 0.6	854.01	844.86	835.64	826.33	1.202	1.01	0.862	0.743
x1 = 0.65	856.19	847.05	837.84	828.54	1.213	1.021	0.872	0.751
x1 = 0.7	858.18	849.04	839.85	830.57	1.224	1.031	0.882	0.76
x1 = 0.75	860.04	850.92	841.74	832.49	1.237	1.043	0.891	0.77
x1 = 0.8	861.76	852.65	843.5	834.28	1.253	1.056	0.903	0.781
x1 = 0.85	863.35	854.28	845.15	835.96	1.268	1.071	0.915	0.792
x1 = 0.9	864.86	855.81	846.71	837.56	1.284	1.086	0.929	0.806
x1 = 0.95	866.3	857.28	848.22	839.12	1.302	1.099	0.941	0.817
x1 = 1	867.72	858.69	849.62	840.55	1.317	1.111	0.952	0.827
